Where a name gives a salt, the structure may show the parent alone.

Broadly, the IC50 is the concentration needed to halve the response being measured.

T1 sequence (Q92633 whole entry): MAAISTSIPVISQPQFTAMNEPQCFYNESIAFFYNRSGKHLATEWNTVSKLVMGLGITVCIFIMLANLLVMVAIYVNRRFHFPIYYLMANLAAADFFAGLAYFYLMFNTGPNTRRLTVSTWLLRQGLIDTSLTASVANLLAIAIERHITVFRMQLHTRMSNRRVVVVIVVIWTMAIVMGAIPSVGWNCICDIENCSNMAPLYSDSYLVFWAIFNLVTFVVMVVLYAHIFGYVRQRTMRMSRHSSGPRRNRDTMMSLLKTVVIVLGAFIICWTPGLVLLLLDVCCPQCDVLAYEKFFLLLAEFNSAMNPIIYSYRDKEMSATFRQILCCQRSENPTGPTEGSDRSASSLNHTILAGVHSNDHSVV

The assay concerns the target T1, human LPA1 (Homo sapiens, UniProt Q92633).
T1 construct: expressed in transfected cells; host or cells: Chinese hamster ovary (CHO) cells
Put plainly: LPA1 functional antagonist assay (calcium flux). Format: cell-based. To be noted: CHO cells overexpressing human LPA1; inhibition of calcium flux induced by 10 nM LPA; read-out: hLPA1 IC50. Here is the method: The effectiveness of compounds of the present invention as LPA1 inhibitors can be determined in an LPA1 functional antagonist assay as follows: • Chinese hamster ovary cells overexpressing human LPA1 were plated overnight (15,000 cells/well) in poly-D-lysine coated 384-well microplates (Greiner bio-one, Cat #781946) in DMEM/F12 medium (Gibco, Cat #11039). Following overnight culture, cells were loaded with calcium indicator dye (AAT Bioquest Inc, Cat #34601) for 30 minutes at 37° C. The cells were then equilibrated to room temperature for 30 minutes before the assay. Test compounds solubilized in DMSO were transferred to 384 well non-binding surface plates (Corning, Cat #3575) using the Labcyte Echo acoustic dispense and diluted with assay buffer [[…] with calcium/magnesium (Gibco Cat #14025-092), 20 mM HEPES (Gibco Cat #15630-080) and 0.1% fatty acid free BSA (Sigma Cat #A9205)] to a final concentration of 0.5% DMSO. Diluted compounds were added to the cells by FDSS6000 (Hamamatsu) at final concentrations ranging from 0.08 nM to 5 μM. and were then incubated for 20 min at room temperature at which time LPA (Avanti Polar Lipids Cat #857130C) was added at final concentrations of 10 nM to stimulate the cells. The compound IC50 value was defined as the concentration of test compound which inhibited 50% of the calcium flux induced by LPA alone. IC50 values were determined by fitting data to a 4-parameter logistic equation (GraphPad Prism, San Diego CA). b. In Vivo Assays LPA Challenge with Plasma Histamine Evaluation.
(Calcium flux is commonly read through the fluorescence of an indicator in the cells.)
As for `CCCCN(C)C(=O)OCc1c(-c2ccc(O[C@H]3CCO[C@@H](C(=O)O)C3)c(C)n2)nnn1C` [Example 35], the IC50 was determined as 644 nM.
Next, `CCCCN(C)C(=O)OCc1c(-c2ccc(O[C@@H]3COC[C@@H](C(=O)O)C3)c(C)n2)nnn1C` [Example 18]: 174 nM; `Cc1nc(-c2nnn(C)c2COC(=O)N(C)CC2CCC2)ccc1O[C@H]1CC[C@@H]2[C@@H](C(=O)O)[C@@H]21` (single isomer, unassigned) [Example 43]: 15 nM.
Under `Cc1nc(-c2nnn(C)c2COC(=O)NCc2ccccc2)ccc1O[C@@H]1CC[C@H]2C(C(=O)O)[C@@H]12` (stereo partly drawn) [Example 63] stands 264 nM; under `CCCCN(C)C(=O)OCc1c(-c2ccc(O[C@H]3COC[C@@H](C(=O)O)C3)c(C)n2)nnn1C` [Example 30], 236 nM; under `Cc1nc(-c2nnn(C)c2COC(=O)N(C)CC2CCC2)ccc1OC1CC2C(C1)C2C(=O)O` (stereo not drawn) [Example 67], 262 nM.
Under `Cc1nc(-c2nnn(C)c2COC(=O)N(C)CC2CCC2)ccc1O[C@H]1CCO[C@H](C(=O)O)C1` [Example 40] stands 158 nM; under `Cc1nc(-c2nnn(C)c2COC(=O)N(C)CC2CCC2)ccc1O[C@@H]1CC[C@H]2C(C(=O)O)[C@@H]12` (single isomer, unassigned) [Example 44, TFA Salt], 65 nM.
Take `CCCN(C)C(=O)OCc1c(-c2ccc(O[C@H]3CCO[C@H](C(=O)O)C3)c(C)n2)nnn1C` [Example 38]: the concentration for half-maximal inhibition (IC50) came to 2010 nM.
Turning to `Cc1nc(-c2nnn(C)c2NC(=O)OCc2ccccc2)ccc1O[C@@H]1CC[C@H]2C(C(=O)O)[C@@H]12` (stereo partly drawn) [Example 64], the IC50 was determined as 125 nM.
Regarding `Cc1nc(-c2nnn(C)c2COC(=O)N(C)CC2CCC2)ccc1O[C@@H]1CCC[C@@]2(C(=O)O)C[C@@H]12` (single isomer, unassigned) [Example 11], the IC50 is 130 nM.
Under `Cc1nc(-c2nnn(C)c2COC(=O)N(C)Cc2ccccc2)ccc1O[C@H]1COC[C@@H](C(=O)O)C1` [Example 29] stands 594 nM; under `Cc1nc(-c2nnn(C)c2Cn2cc(CC3CCCC3)nn2)ccc1O[C@H]1COC[C@H](C(=O)O)C1` [Example 26], 772 nM; under `Cc1nc(-c2nnn(C)c2COC(=O)N(C)CC2CCC2)ccc1O[C@@H]1CC2C[C@H]2[C@H](C(=O)O)C1` (single isomer, unassigned) [Example 3], 16 nM.
Next, `Cc1nc(-c2nnn(C)c2CNC(=O)OCC2CCC2)ccc1O[C@@H]1CCC2C(C(=O)O)C21` (mixture of isomers) [Example 47, (±)-(2R)-2-((6-(5-((((cyclobutylmethoxy)carbonyl)amino)methyl)-1-methyl-1H-1,2,3-triazol-4-yl)-2-methylpyridin-3-yl)oxy)bicyclo[3.1.0]hexane-6-carboxylic Acid]: 191 nM; `Cc1nc(-c2nnn(C)c2COC(=O)N(C)CC2CCC2)ccc1O[C@@H]1C[C@H]2C[C@H]2[C@H](C(=O)O)C1` (racemic) [Example 1, (±)-(1R,2R,4R,6R)-4-((6-(5-((((cyclobutylmethyl)(methyl)carbamoyl)oxy)methyl)-1-methyl-1H-1,2,3-triazol-4-yl)-2-methylpyridin-3-yl)oxy)bicyclo[4.1.0]heptane-2-carboxylic Acid]: 27 nM.
Next, `Cc1nc(-c2nnn(C)c2COC(=O)N(C)CC2CCC2)ccc1O[C@@H]1CC[C@H]2C(C(=O)O)[C@@H]12` (single isomer, unassigned) [Example 42]: 619 nM.
Regarding `CCCCOC(=O)NCc1c(-c2ccc(O[C@@H]3CCC4C(C(=O)O)C43)c(C)n2)nnn1C` (stereo partly drawn) [Example 56], the IC50 turned out to be 155 nM.
Next, `Cc1nc(-c2nnn(C)c2CNc2noc(CCC3CCC3)n2)ccc1O[C@@H]1CCO[C@@H](C(=O)O)C1` (racemic) [Example 33, (±)-trans-4-((6-(5-(((5-(2-cyclobutylethyl)-1,2,4-oxadiazol-3-yl)amino)methyl)-1-methyl-1H-1,2,3-triazol-4-yl)-2-methylpyridin-3-yl)oxy)tetrahydro-2H-pyran-2-carboxylic Acid]: 263 nM; `Cc1nc(-c2nnn(C)c2CNc2nccc(-c3ccccn3)n2)ccc1OC1CCC2C(C(=O)O)C12` (mixture of isomers) [Example 48, (±)-(2R)-2-((2-Methyl-6-(1-methyl-54(4-(pyridin-2-yl)pyrimidin-2-yl)amino)methyl)-1H-1,2,3-triazol-4-yl)pyridin-3-yl)oxy)bicyclo[3.1.0]hexane-6-carboxylic Acid]: 159 nM.
Under `Cc1nc(-c2nnn(C)c2COC(=O)N(C)CC2CC2)ccc1O[C@@H]1CC[C@H]2C(C(=O)O)[C@@H]12` (stereo partly drawn) [Example 59] stands 313 nM; under `Cc1nc(-c2nnn(C)c2COC(=O)N(C)CC2CCC2)ccc1O[C@@H]1C[C@H](C(=O)O)C[C@@H]2C[C@@H]21` [Example 73], 60 nM; under `Cc1nc(-c2nnn(C)c2COC(=O)N(C)CC2CCC2)ccc1O[C@H]1CC2C[C@H]2[C@@H](C(=O)O)C1` (single isomer, unassigned) [Example 9], 582 nM.
Next, `CCCCN(C)C(=O)OCc1c(-c2ccc(O[C@@H]3CC[C@H]4C(C(=O)O)[C@@H]34)c(C)n2)nnn1C` (stereo partly drawn) [Example 58]: 46 nM; `CC(C)CN(C)C(=O)OCc1c(-c2ccc(O[C@@H]3CC[C@H]4C(C(=O)O)[C@@H]34)cn2)nnn1C` (mixture of isomers) [Example 68, (±)-(1S,2R,5R,6R)-2-((6-(5-(((isobutyl(methyl)carbamoyl)oxy)methyl)-1-methyl-1H-1,2,3-triazol-4-yl)pyridin-3-yl)oxy)bicyclo[3.1.0]hexane-6-carboxylic Acid]: 239 nM.
On to `CN(C(=O)OCc1c(-c2ccc(OC3CCCC4C(C(=O)O)C34)cn2)nnn1C)C1CCCC1` (racemic) [Example 74, (±)-2-((6-(5-(((Cyclopentyl(methyl)carbamoyl)oxy)methyl)-1-methyl-1H-1,2,3-triazol-4-yl)pyridin-3-yl)oxy)bicyclo[4.1.0]heptane-7-carboxylic Acid], for which the IC50 is 60 nM.
Under `Cc1nc(-c2nnn(C)c2COC(=O)N(C)CC2CCC2)ccc1O[C@@H]1COC[C@@H](C(=O)O)C1` [Example 21] stands 168 nM; under `Cc1nc(-c2nnn(C)c2CNc2nccc(OC3CC3)n2)ccc1OC1CC[C@H]2C(C(=O)O)[C@@H]12` (mixture of isomers) [Example 50, (±)-(1S,2R,5R,6R)-2-((6-(5-(((4-Cyclopropoxypyrimidin-2-yl)amino)methyl)-1-methyl-1H-1,2,3-triazol-4-yl)-2-methylpyridin-3-yl)oxy)bicyclo[3.1.0]hexane-6-carboxylic Acid], 105 nM; under `Cc1nc(-c2nnn(C)c2NC(=O)OCC2CC2)ccc1O[C@H]1C[C@H](C(=O)O)[C@@H]2C[C@@H]21` [Example 16], 1.43 nM.
Next, `Cc1nc(-c2nnn(C)c2COC(=O)N(C)Cc2ccccc2)ccc1O[C@@H]1COC[C@@H](C(=O)O)C1` [Example 22B]: 178 nM.
Under `Cc1nc(-c2nnn(C)c2COC(=O)N(C)CC2CCCC2)ccc1OC1COCC(C(=O)O)C1` (racemic) [Example 28, (±)-trans-5-((6-(5-((((cyclopentylmethyl)(methyl)carbamoyl)oxy)methyl)-1-methyl-1H-1,2,3-triazol-4-yl)-2-methylpyridin-3-yl)oxy)tetrahydro-2H-pyran-3-carboxylic Acid, TFA Salt] stands 225 nM; under `CN(CC1CCC1)C(=O)OCc1c(-c2ccc(O[C@@H]3CC[C@H]4C(C(=O)O)[C@@H]34)cn2)nnn1C` (stereo partly drawn) [Example 70], 81 nM.
As to `CCCN(C)C(=O)OCc1c(-c2ccc(O[C@H]3C[C@H](C(=O)O)[C@@H]4C[C@@H]43)c(C)n2)nnn1C` [Example 13], the half-maximal inhibitory concentration (IC50) was 793 nM.
Regarding `CCCCN(C)C(=O)OCc1c(-c2ccc(O[C@H]3C[C@H](C(=O)O)[C@@H]4C[C@@H]43)c(C)n2)nnn1C` [Example 14], the IC50 came to 143 nM.
Next, `CCCN(C)C(=O)OCc1c(-c2ccc(O[C@@H]3CC[C@H]4C(C(=O)O)[C@@H]34)cn2)nnn1C` (mixture of isomers) [Example 69]: 453 nM; `CCCCCN(C)C(=O)OCc1c(-c2ccc(O[C@H]3COC[C@@H](C(=O)O)C3)c(C)n2)nnn1C` [Example 31]: 2.29 nM.
Take `Cc1nc(-c2nnn(C)c2COC(=O)N(C)CC2CCC2)ccc1O[C@H]1CCC[C@]2(C(=O)O)C[C@H]12` (single isomer, unassigned) [Example 12]: the 50% inhibitory concentration (IC50) worked out at 278 nM.
In the case of `Cc1nc(-c2nnn(C)c2Cn2nncc2CC2CCCC2)ccc1O[C@H]1COC[C@H](C(=O)O)C1` [Example 25], the 50% inhibitory concentration (IC50) stood at 931 nM.
Next, `Cc1nc(-c2nnn(C)c2NC(=O)OCC2CC2)ccc1O[C@@H]1CC[C@H]2C(C(=O)O)[C@@H]12` (mixture of isomers) [Example 52, (±)-(1S,2R,5R,6R)-2-((6-(5-(((cyclopropylmethoxy)carbonyl)amino)-1-methyl-1H-1,2,3-triazol-4-yl)-2-methylpyridin-3-yl)oxy)bicyclo[3.1.0]hexane-6-carboxylic Acid]: 1720 nM.

The values are drawn from patent US12435057B2, “Triazole carboxylic acids as LPA antagonists” (BRISTOL-MYERS SQUIBB COMPANY, priority 2019, dated 2025).
